In patent US9034793B2, “Use of ribose to enhance plant growth” (Bioenergy, Inc., priority 2002, dated 2015):
Several values for one entry are separate records, joined by “and”; a condition that tells them apart may be missing. Equal entries are not always repeated.

Experiments:
bean seeds [1] = assay: Root growth assessment (Example 3); assay type: in vivo; conditions: for Root appearance: 2 weeks, compared with water treated roots
From the text: Identical sized pots, containing the same consistency of soil media, were used in assessing root growth. Bean seeds of similar size were chosen. One seed was planted in each pot. The depth in the soil for each seed that was planted was the same. Paired pots (total of 3 pairs, 6 pots), each containing one bean seed, were used. One pair of pots received 2 teaspoons of water every other day (Group A). The second pair of pots received a low Ribose solution (1 teaspoon of D-ribose in 16 oz of water), each pot received 2 teaspoons of this low dose of Ribose every other day (Group B). The final pair of pots received a higher dose of Ribose (1 teaspoon of D-ribose in 4 oz of water), each pot received 2 teaspoons of this higher dose of Ribose every other day (Group C). In each pair of pots, roots were examined at week 1 and 2, by removing the roots of one pot only in each group at the designed test time point with soil emersion in a bucket of water. At week 2 all remaining pots had shoots emerging from the top soil. The roots were weighed and measured for length. […] This discrepancy expanded when the roots were analyzed at 2 weeks. […] The weight of the roots treated with high dose Ribose were appreciably less in weight than both the water and low dose Ribose treated groups.

cut flower = conditions: storage solution containing the compound; cited from earlier work
[2] = test system: plants grown from seed (5 seeds per plot); assay: Plant feeding with ribose for growth (Table 1); assay type: in vivo, Hosta (H. plantaginea grandiflora); conditions: for Unsprouted: of 5 seeds per plot
From the text: (§1) Hosta (H. plantaginea grandiflora) plants were transplanted. The protocol was designed such that half of the plants were supplied with water alone and half of the plants received a ribose based solution, in which powdered D-ribose was mixed in water. All plants were transplanted at the same level in the soil and in like soil. All plants were watered at the same times of day, mid-morning and at dusk. Each plant received the same amount of water/watering (½ liter water at each watering). Results of plant growth data following transplantation are graphically depicted in FIGS. 1 and 2. [table]

bean seeds [3] = assay: Fertilization with ribose combined with nitrogen, phosphorus, potassium; assay type: in vivo; conditions: ribose combined with the fertilizers nitrogen, phosphorus, and potassium
Method: D-ribose plus nitrogen, nitrogen alone, or placebo was administered to bean seeds and measurements of growth and yield was made as in Example 2. D-ribose plus phosphorus, phosphorus alone, or placebo was administered to bean seeds and measurements of growth and yield was made as in Example 2. D-ribose plus potassium, potassium alone, or placebo was administered to bean seeds and measurements of growth and yield was made as in Example 2. D-ribose plus the combination, the combination alone, or placebo was administered to bean seeds and measurements of growth and yield was made as in Example 2.

kohlrabi (K) = assay: Transplants in garden, growth and hardening after transplantation: kohlrabi; assay type: in vivo
From the text: as §1

beans (B) = assay: Transplants in garden, growth and hardening after transplantation: beans; assay type: in vivo, bean
From the text: as §1

[4] = Week 1 following seed implantation
[5] = Week 2, plants cut off above the soil, just the roots weighed
[6] = 29-Sep, first measure after transplant

Structure (SMILES): O=C[C@H](O)[C@H](O)[C@H](O)CO [High Ribose, D-ribose]
- Root appearance (bean seeds [1]; listed as high dose Ribose): thick
- Root Length (bean seeds [1]; [4]): 13.8 cm
- Root Weight (bean seeds [1]; [4]): 1.46 gm
- Root Length (bean seeds [1]; Week 2): 14.7 cm
- Root Weight (bean seeds [1]; [5]): 0.26 gm
- Root Weight (bean seeds [1]; Week 2, plants cut off above the soil, just the roots weighed, listed as high dose Ribose): less in weight than both the low dose Ribose and water groups

Structure (SMILES): CCSC[C@@H](O)[C@@H](O)[C@@H](O)C=O [5-deoxy-5-ethylthio-D-ribose]
- Bloom life of a cut flower (cut flower): extend bloom life

Structure (SMILES): O=C[C@H](O)[C@H](O)[C@H](O)CO [Low Ribose, D-ribose]
- Root appearance (bean seeds [1]; listed as low dose Ribose): thicker, shorter roots
- Root Length (bean seeds [1]; [4]): 13.4 cm
- Root Weight (bean seeds [1]; [4]): 1.55 gm
- Root Length (bean seeds [1]; Week 2): 16.0 cm
- Root Weight (bean seeds [1]; [5]): 1.01 gm

Structure (SMILES): O=C[C@H](O)[C@H](O)[C@H](O)CO [R2, ribose]
- Plant measures, Mean ([2]; 23 June, 5 seeds per plot): 3.3 inches
- Unsprouted ([2]; 23 June): 1
- #Plants/blossom ([2]; Measured 8 July): 3
- Plant measures, Mean ([2]; Measured 8 July): 5.8 inches

Structure (SMILES): O=C[C@H](O)[C@H](O)[C@H](O)CO [Ribose, D-ribose]
- Improvement over solutions of ribose alone (bean seeds [3]): slight incremental improvements
- Root Length (bean seeds [1]; [4]): slightly shorter in length
- Root Weight (bean seeds [1]; [4]): heavier

Structure (SMILES): O=C[C@H](O)[C@H](O)[C@H](O)CO [R3, ribose]
- Plant measures, Mean ([2]; 23 June, 5 seeds per plot): 6.05 inches
- Unsprouted ([2]; 23 June): 0
- #Plants/blossom ([2]; Measured 8 July): 4
- Plant measures, Mean ([2]; Measured 8 July): 9.3 inches

Structure (SMILES): O=C[C@H](O)[C@H](O)[C@H](O)CO [R1, ribose]
- Kohlrabi plant measure (kohlrabi (K); 1-Nov, after transplant): 11 and 15.5 and 9.8 and 18
- Plant measures, Mean ([2]; 23 June, 5 seeds per plot): 1.65 inches
- Unsprouted ([2]; 23 June): 2
- #Plants/blossom ([2]; Measured 8 July): 1
- Plant measures, Mean ([2]; Measured 8 July): 2.9 inches
- Bean measure to the Y (beans (B); 1-Nov, after transplant): 17 cm and 12 cm
- Bean overall height (beans (B); 1-Nov, after transplant): 33.5 cm and 18 cm
- Bean measure to the Y (beans (B); 9-Sep, before moving): 9 cm and 10 cm and 6 cm
- Bean measure to the Y (beans (B); 19-Oct, after transplant): 16 cm and 10 cm
- Bean measure to the Y (beans (B); [6]): 14 cm and 9.5 cm

Structure (SMILES): O=C[C@H](O)[C@H](O)[C@H](O)CO [R4, ribose]
- Kohlrabi plant measure (kohlrabi (K); 1-Nov, after transplant): 16.5 and 19 and 22 and 21 and 15
- Kohlrabi plant measure (kohlrabi (K); 9-Sep, before moving): 12 and 13 and 17 and 11
- Kohlrabi plant measure (kohlrabi (K); 19-Oct, after transplant): 15 and 18 and 19.5 and 20 and 14.5
- Kohlrabi plant measure (kohlrabi (K); [6]): 14 and 16 and 19 and 19.5 and 13
- Plant measures, Mean ([2]; 23 June, 5 seeds per plot): 8.45 inches
- Unsprouted ([2]; 23 June): 0
- Plant measures, measured to the Y, single plants ([2]; 23 June, planted 4 June, 2 tablespoons every other day (3x per week)): 6.5 inches and 8 inches and 8.25 inches and 9.5 inches and 10 inches
- #Plants/blossom ([2]; Measured 8 July): 5
- Plant measures, Mean ([2]; Measured 8 July): 11.1 inches
- Plant measures, measured to the Y, single plants ([2]; Measured 8 July): 8.75 inches and 10 inches and 10.5 inches and 11.75 inches and 12 inches
- Bean measure to the Y (beans (B); 1-Nov, after transplant): 10 cm and 13 cm
- Bean overall height (beans (B); 1-Nov, after transplant): 27 cm and 30 cm
- Bean measure to the Y (beans (B); 9-Sep, before moving): 6 cm and 8 cm
- Bean overall height (beans (B); 9-Sep, before moving): 21 cm and 22 cm
- Bean measure to the Y (beans (B); 19-Oct, after transplant): 8.75 cm and 12 cm
- Bean overall height (beans (B); 19-Oct, after transplant): 26 cm and 28 cm
- Bean measure to the Y (beans (B); [6]): 7.5 cm and 10.5 cm
- Bean overall height (beans (B); [6]): 24 cm and 26 cm
